Laboratory results published in PubChem BioAssay AID1963983 (Molecular Pharmacology Branch, DTP, NCI, 2024).

System: 186277-243-T-J2-PDC multi-cell spheroid viability
Test: Anticancer human tumor 186277-243-T-J2-PDC patient-derived colon adenocarcinoma cell line growth inhibition [PI3K]
Details: for viability, T/C: stronger effect = lower value
Method in brief: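 We assembled tumor spheroids that included a stromal compartment of HUVEC and MSCs, then exposed them to targeted agents alone and together with PI3K pathway inhibitors. Concentration series descended by half-log from clinically achievable Cmax levels. Viability served as the endpoint.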

[1] = curve of first compound, second compound 0.0316 µM
[2] = curve of first compound, second compound 0.1 µM
[3] = curve of first compound, second compound 0.316 µM
[4] = curve of first compound, second compound 1 µM
[5] = curve of first compound, second compound 3.16 µM
[6] = curve of first compound, second compound 10 µM
[7] = second compound 0.0316 µM, first compound 0.0316 µM
[8] = second compound 0.0316 µM, first compound 0.1 µM
[9] = second compound 0.1 µM, first compound 0.0316 µM
[10] = second compound 0.1 µM, first compound 0.1 µM
[11] = second compound 0.316 µM, first compound 0.0316 µM
[12] = second compound 0.316 µM, first compound 0.1 µM
[13] = second compound 1 µM, first compound 0.0316 µM
[14] = second compound 1 µM, first compound 0.1 µM
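Note: spheroids exposed to compounds for seven days before viability reading.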
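Throughout, for viability, T/C: 100% = DMSO vehicle control viability.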

`Cn1ncnc1[C@H]1c2n[nH]c(=O)c3cc(F)cc(c23)N[C@@H]1c1ccc(F)cc1` + CC(Nc1ncnc2nc[nH]c12)c1cc2cccc(Cl)c2c(=O)n1-c1ccccc1 was tested, and the IC50 [1] was > 100 nM, the IC50 [2] was > 100 nM and the IC50 [3] was > 100 nM. For the same compound, the IC50 [4] was > 100 nM, the IC50 [5] was > 100 nM and the IC50 [6] was > 100 nM. It also gave a viability, T/C (second compound 0.0316 µM, first compound 0.000316 µM) of 88.3%, a viability, T/C (second compound 0.0316 µM, first compound 0.001 µM) of 94.7% and a viability, T/C (second compound 0.0316 µM, first compound 0.00316 µM) of 86.8%. The viability, T/C (second compound 0.0316 µM, first compound 0.01 µM) was 100%, the viability, T/C [7] was 104% and the viability, T/C [8] was 88.9%. It also gave a viability, T/C (second compound 0.1 µM, first compound 0.000316 µM) of 93.2%, a viability, T/C (second compound 0.1 µM, first compound 0.001 µM) of 111% and a viability, T/C (second compound 0.1 µM, first compound 0.00316 µM) of 94.9%. It also gave a viability, T/C (second compound 0.1 µM, first compound 0.01 µM) of 103%, a viability, T/C [9] of 99.9% and a viability, T/C [10] of 99.3%. For the same compound, the viability, T/C (second compound 0.316 µM, first compound 0.000316 µM) was 93.5%, the viability, T/C (second compound 0.316 µM, first compound 0.001 µM) was 107% and the viability, T/C (second compound 0.316 µM, first compound 0.00316 µM) was 96.1%. The viability, T/C (second compound 0.316 µM, first compound 0.01 µM) was 92.5%, the viability, T/C [11] was 91.3% and the viability, T/C [12] was 85%. It also gave a viability, T/C (second compound 1 µM, first compound 0.000316 µM) of 89.3%, a viability, T/C (second compound 1 µM, first compound 0.001 µM) of 95.5% and a viability, T/C (second compound 1 µM, first compound 0.00316 µM) of 114%. For the same compound, the viability, T/C (second compound 1 µM, first compound 0.01 µM) was 97.4%, the viability, T/C [13] was 87% and the viability, T/C [14] was 84.4%. For the same compound, the viability, T/C (second compound 3.16 µM, first compound 0.000316 µM) was 108%, the viability, T/C (second compound 3.16 µM, first compound 0.001 µM) was 107% and the viability, T/C (second compound 3.16 µM, first compound 0.00316 µM) was 102%. For the same compound, the viability, T/C (second compound 3.16 µM, first compound 0.01 µM) was 84.5%, the viability, T/C (second compound 3.16 µM, first compound 0.0316 µM) was 101% and the viability, T/C (second compound 3.16 µM, first compound 0.1 µM) was 99.1%. For the same compound, the viability, T/C (second compound 10 µM, first compound 0.000316 µM) was 99.6%, the viability, T/C (second compound 10 µM, first compound 0.001 µM) was 90.6% and the viability, T/C (second compound 10 µM, first compound 0.00316 µM) was 84.4%. The viability, T/C (second compound 10 µM, first compound 0.01 µM) was 86%, the viability, T/C (second compound 10 µM, first compound 0.0316 µM) was 88.6% and the viability, T/C (second compound 10 µM, first compound 0.1 µM) was 85%.

For `Cc1nc(NC(=O)N2CCCC2C(N)=O)sc1-c1ccnc(C(C)(C)C(F)(F)F)c1` (configuration not stated), the viability, T/C (compound 0.1 µM) was 104% [middle of 8 runs], the viability, T/C (compound 0.316 µM) was 110% [middle of 8 runs] and the viability, T/C (compound 1 µM) was 102% [middle of 8 runs]. The viability, T/C (compound 3.16 µM) was 54.1% [middle of 8 runs], the viability, T/C (compound 10 µM) was 16.6% [middle of 8 runs] and the IC50 (compound alone, run of 05/08/2023) was 3.62 µM [middle of 8 runs].

With `C[C@@H](NC(=O)c1ncnc(N)c1Cl)c1ncc(C(=O)Nc2cc(C(F)(F)F)c(Cl)cn2)s1` + COc1c(OCCCN2CCOCC2)ccc2c3n(c(=NC(=O)c4cnc(N)nc4)nc12)CCN3 the IC50 (curve of first compound, second compound 0.00316 µM) was > 10000 nM, the IC50 (curve of first compound, second compound 0.01 µM) was 8020 nM and the IC50 [1] was 1640 nM. The IC50 [2] was < 31.6 nM, the IC50 [3] was < 31.6 nM and the IC50 [4] was < 31.6 nM. The viability, T/C (second compound 0.00316 µM, first compound 0.0316 µM) was 97.9%, the viability, T/C (second compound 0.00316 µM, first compound 0.1 µM) was 94% and the viability, T/C (second compound 0.00316 µM, first compound 0.316 µM) was 107%. It also gave a viability, T/C (second compound 0.00316 µM, first compound 1 µM) of 90.4%, a viability, T/C (second compound 0.00316 µM, first compound 3.16 µM) of 108% and a viability, T/C (second compound 0.00316 µM, first compound 10 µM) of 67.7%. It also gave a viability, T/C (second compound 0.01 µM, first compound 0.0316 µM) of 128%, a viability, T/C (second compound 0.01 µM, first compound 0.1 µM) of 102% and a viability, T/C (second compound 0.01 µM, first compound 0.316 µM) of 113%. The viability, T/C (second compound 0.01 µM, first compound 1 µM) was 96.9%, the viability, T/C (second compound 0.01 µM, first compound 3.16 µM) was 98.4% and the viability, T/C (second compound 0.01 µM, first compound 10 µM) was 38.7%. For the same compound, the viability, T/C [7] was 87.7%, the viability, T/C [8] was 82% and the viability, T/C (second compound 0.0316 µM, first compound 0.316 µM) was 81.6%. For the same compound, the viability, T/C (second compound 0.0316 µM, first compound 1 µM) was 68.5%, the viability, T/C (second compound 0.0316 µM, first compound 3.16 µM) was 25.9% and the viability, T/C (second compound 0.0316 µM, first compound 10 µM) was 5.51%. For the same compound, the viability, T/C [9] was 37.9%, the viability, T/C [10] was 30.7% and the viability, T/C (second compound 0.1 µM, first compound 0.316 µM) was 25.7%. It also gave a viability, T/C (second compound 0.1 µM, first compound 1 µM) of 13.2%, a viability, T/C (second compound 0.1 µM, first compound 3.16 µM) of 7.38% and a viability, T/C (second compound 0.1 µM, first compound 10 µM) of 4.45%. It also gave a viability, T/C [11] of 7.07%, a viability, T/C [12] of 7.19% and a viability, T/C (second compound 0.316 µM, first compound 0.316 µM) of 7.95%. For the same compound, the viability, T/C (second compound 0.316 µM, first compound 1 µM) was 6.31%, the viability, T/C (second compound 0.316 µM, first compound 3.16 µM) was 1.83% and the viability, T/C (second compound 0.316 µM, first compound 10 µM) was 1.23%. The viability, T/C [13] was 4.1%, the viability, T/C [14] was 2.89% and the viability, T/C (second compound 1 µM, first compound 0.316 µM) was 2.41%. It also gave a viability, T/C (second compound 1 µM, first compound 1 µM) of 2.48%, a viability, T/C (second compound 1 µM, first compound 3.16 µM) of 1.54% and a viability, T/C (second compound 1 µM, first compound 10 µM) of 0.23%.

Compound `Cn1cnc2c(F)c(Nc3ccc(Br)cc3Cl)c(C(=O)NOCCO)cc21` + CC(Nc1ncnc2nc[nH]c12)c1cc2cccc(Cl)c2c(=O)n1-c1ccccc1 has an IC50 [1] of 175 nM, an IC50 [2] of 162 nM and an IC50 [3] of 148 nM. For the same compound, the IC50 [4] was 114 nM, the IC50 [5] was 62.7 nM and the IC50 [6] was 23.1 nM. It also gave a viability, T/C (second compound 0.0316 µM, first compound 0.00949 µM) of 93%, a viability, T/C (second compound 0.0316 µM, first compound 0.03 µM) of 91.3% and a viability, T/C (second compound 0.0316 µM, first compound 0.0949 µM) of 58.8%. The viability, T/C (second compound 0.0316 µM, first compound 0.3 µM) was 38.9%, the viability, T/C (second compound 0.0316 µM, first compound 0.949 µM) was 23.3% and the viability, T/C (second compound 0.0316 µM, first compound 3 µM) was 10.3%. It also gave a viability, T/C (second compound 0.1 µM, first compound 0.00949 µM) of 115%, a viability, T/C (second compound 0.1 µM, first compound 0.03 µM) of 92.3% and a viability, T/C (second compound 0.1 µM, first compound 0.0949 µM) of 56.4%. It also gave a viability, T/C (second compound 0.1 µM, first compound 0.3 µM) of 40.1%, a viability, T/C (second compound 0.1 µM, first compound 0.949 µM) of 22.2% and a viability, T/C (second compound 0.1 µM, first compound 3 µM) of 12%. The viability, T/C (second compound 0.316 µM, first compound 0.00949 µM) was 91.1%, the viability, T/C (second compound 0.316 µM, first compound 0.03 µM) was 82.4% and the viability, T/C (second compound 0.316 µM, first compound 0.0949 µM) was 57.4%. It also gave a viability, T/C (second compound 0.316 µM, first compound 0.3 µM) of 37.5%, a viability, T/C (second compound 0.316 µM, first compound 0.949 µM) of 15.3% and a viability, T/C (second compound 0.316 µM, first compound 3 µM) of 12.5%. The viability, T/C (second compound 1 µM, first compound 0.00949 µM) was 112%, the viability, T/C (second compound 1 µM, first compound 0.03 µM) was 82.5% and the viability, T/C (second compound 1 µM, first compound 0.0949 µM) was 49.7%. For the same compound, the viability, T/C (second compound 1 µM, first compound 0.3 µM) was 35.1%, the viability, T/C (second compound 1 µM, first compound 0.949 µM) was 19.5% and the viability, T/C (second compound 1 µM, first compound 3 µM) was 9.14%. The viability, T/C (second compound 3.16 µM, first compound 0.00949 µM) was 104%, the viability, T/C (second compound 3.16 µM, first compound 0.03 µM) was 64.1% and the viability, T/C (second compound 3.16 µM, first compound 0.0949 µM) was 39.9%. The viability, T/C (second compound 3.16 µM, first compound 0.3 µM) was 28.5%, the viability, T/C (second compound 3.16 µM, first compound 0.949 µM) was 18.3% and the viability, T/C (second compound 3.16 µM, first compound 3 µM) was 7.22%. It also gave a viability, T/C (second compound 10 µM, first compound 0.00949 µM) of 75.7%, a viability, T/C (second compound 10 µM, first compound 0.03 µM) of 41.1% and a viability, T/C (second compound 10 µM, first compound 0.0949 µM) of 25.4%. The viability, T/C (second compound 10 µM, first compound 0.3 µM) was 14.1%, the viability, T/C (second compound 10 µM, first compound 0.949 µM) was 8.69% and the viability, T/C (second compound 10 µM, first compound 3 µM) was 5.17%.
